ChEMBL document CHEMBL4411296, “Design and development of Isatin-triazole hydrazones as potential inhibitors of microtubule affinity-regulating kinase 4 for the therapeutic management of cell proliferation and metastasis” (Eur J Med Chem, 2019)

Experiments:
Type in all cases: functional
[1] = test system: EKVX; test: Growth inhibition of human EKVX cells assessed as cell growth at 10 uM after 48 hrs by sulforhodamine B assay relative to control; settings: read-out: Activity
[2] = test system: SF-268; test: Growth inhibition of human SF268 cells assessed as cell growth at 10 uM after 48 hrs by sulforhodamine B assay relative to control; settings: SF-268, 48 h, read-out: Activity
[3] = test system: SNB-19; test: Growth inhibition of human SNB19 cells assessed as cell growth at 10 uM after 48 hrs by sulforhodamine B assay relative to control; settings: SNB-19, 48 h, read-out: Activity
[4] = test system: PC-3; test: Growth inhibition of human PC3 cells assessed as cell growth at 10 uM after 48 hrs by sulforhodamine B assay relative to control; settings: PC-3, 48 h, read-out: Activity
[5] = test system: MDA-MB-435; test: Growth inhibition of human MDA-MB-435 cells assessed as cell growth at 10 uM after 48 hrs by sulforhodamine B assay relative to control; settings: MDA-MB-435, 48 h, read-out: Activity
[6] = test system: HOP-62; test: Growth inhibition of human HOP62 cells assessed as cell growth at 10 uM after 48 hrs by sulforhodamine B assay relative to control; settings: HOP-62, 48 h, read-out: Activity
[7] = test system: HT-29; test: Growth inhibition of human HT-29 cells assessed as cell growth at 10 uM after 48 hrs by sulforhodamine B assay relative to control; settings: HT-29, 48 h, read-out: Activity
[8] = test system: MDA-MB-231; test: Growth inhibition of human MDA-MB-231 cells assessed as cell growth at 10 uM after 48 hrs by sulforhodamine B assay relative to control; settings: MDA-MB-231, 48 h, read-out: Activity
[9] = test system: HL-60(TB); test: Growth inhibition of human HL-60(TB) cells assessed as cell growth at 10 uM after 48 hrs by sulforhodamine B assay relative to control; settings: HL-60, 48 h, read-out: Activity
[10] = test system: Hs-578T; test: Growth inhibition of human Hs 578T cells assessed as cell growth at 10 uM after 48 hrs by sulforhodamine B assay relative to control; settings: read-out: Activity
[11] = test system: KM12; test: Growth inhibition of human KM12 cells assessed as cell growth at 10 uM after 48 hrs by sulforhodamine B assay relative to control; settings: KM12, 48 h, read-out: Activity
[12] = test system: A549; test: Growth inhibition of human A549/ATCC cells assessed as cell growth at 10 uM after 48 hrs by sulforhodamine B assay relative to control; settings: A549, 48 h, read-out: Activity
[13] = test system: Malme-3M; test: Growth inhibition of human MALME-3M cells assessed as cell growth at 10 uM after 48 hrs by sulforhodamine B assay relative to control; settings: read-out: Activity
[14] = test system: CAKI-1; test: Growth inhibition of human Caki1 cells assessed as cell growth at 10 uM after 48 hrs by sulforhodamine B assay relative to control; settings: CAKI-1, 48 h, read-out: Activity
[15] = test system: SF-539; test: Growth inhibition of human SF539 cells assessed as cell growth at 10 uM after 48 hrs by sulforhodamine B assay relative to control; settings: SF-539, 48 h, read-out: Activity
[16] = test system: RPMI-8226; test: Growth inhibition of human RPMI8226 cells assessed as cell growth at 10 uM after 48 hrs by sulforhodamine B assay relative to control; settings: RPMI-8226, 48 h, read-out: Activity
[17] = test system: MOLT-4; test: Growth inhibition of human MOLT4 cells assessed as cell growth at 10 uM after 48 hrs by sulforhodamine B assay relative to control; settings: MOLT-4, 48 h, read-out: Activity
[18] = test system: NCI-H460; test: Growth inhibition of human NCI-H460 cells assessed as cell growth at 10 uM after 48 hrs by sulforhodamine B assay relative to control; settings: NCI-H460, 48 h, read-out: Activity
[19] = test system: ACHN; test: Growth inhibition of human ACHN cells assessed as cell growth at 10 uM after 48 hrs by sulforhodamine B assay relative to control; settings: read-out: Activity
[20] = test system: OVCAR-8; test: Growth inhibition of human OVCAR8 cells assessed as cell growth at 10 uM after 48 hrs by sulforhodamine B assay relative to control; settings: OVCAR-8, 48 h, read-out: Activity
[21] = test system: M14; test: Growth inhibition of human M14 cells assessed as cell growth at 10 uM after 48 hrs by sulforhodamine B assay relative to control; settings: M14, 48 h, read-out: Activity
[22] = test system: HCT-116; test: Growth inhibition of human HCT116 cells assessed as cell growth at 10 uM after 48 hrs by sulforhodamine B assay relative to control; settings: HCT-116, 48 h, read-out: Activity
[23] = test system: SK-MEL-5; test: Growth inhibition of human SK-MEL-5 cells assessed as cell growth at 10 uM after 48 hrs by sulforhodamine B assay relative to control; settings: SK-MEL-5, 48 h, read-out: Activity
[24] = test system: SK-MEL-2; test: Growth inhibition of human SK-MEL-2 cells assessed as cell growth at 10 uM after 48 hrs by sulforhodamine B assay relative to control; settings: SK-MEL-2, 48 h, read-out: Activity
[25] = test system: LOX IMVI; test: Growth inhibition of human LOXIMVI cells assessed as cell growth at 10 uM after 48 hrs by sulforhodamine B assay relative to control; settings: read-out: Activity
[26] = test system: HCT-15; test: Growth inhibition of human HCT15 cells assessed as cell growth at 10 uM after 48 hrs by sulforhodamine B assay relative to control; settings: HCT-15, 48 h, read-out: Activity
[27] = test system: TK-10; test: Growth inhibition of human TK10 cells assessed as cell growth at 10 uM after 48 hrs by sulforhodamine B assay relative to control; settings: TK-10, 48 h, read-out: Activity
[28] = test system: RXF 393; test: Growth inhibition of human RXF393 cells assessed as cell growth at 10 uM after 48 hrs by sulforhodamine B assay relative to control; settings: RXF 393, 48 h, read-out: Activity
[29] = test system: OVCAR-5; test: Growth inhibition of human OVCAR5 cells assessed as cell growth at 10 uM after 48 hrs by sulforhodamine B assay relative to control; settings: OVCAR-5, 48 h, read-out: Activity
[30] = test system: IGROV-1; test: Growth inhibition of human IGROV1 cells assessed as cell growth at 10 uM after 48 hrs by sulforhodamine B assay relative to control; settings: IGROV-1, 48 h, read-out: Activity
[31] = test system: UACC-62; test: Growth inhibition of human UACC62 cells assessed as cell growth at 10 uM after 48 hrs by sulforhodamine B assay relative to control; settings: UACC-62, 48 h, read-out: Activity
[32] = test system: NCI/ADR-RES; test: Growth inhibition of human NCI/ADR-RES cells assessed as cell growth at 10 uM after 48 hrs by sulforhodamine B assay relative to control; settings: read-out: Activity
[33] = test system: SN12C; test: Growth inhibition of human SN12C cells assessed as cell growth at 10 uM after 48 hrs by sulforhodamine B assay relative to control; settings: read-out: Activity
[34] = test system: HCC 2998; test: Growth inhibition of human HCC2998 cells assessed as cell growth at 10 uM after 48 hrs by sulforhodamine B assay relative to control; settings: HCC 2998, 48 h, read-out: Activity

Row | Compound | growth at 10 µM [1] [%] | growth at 10 µM [2] [%] | growth at 10 µM [3] [%] | growth at 10 µM [4] [%] | growth at 10 µM [5] [%] | growth at 10 µM [6] [%] | growth at 10 µM [7] [%] | growth at 10 µM [8] [%] | growth at 10 µM [9] [%] | growth at 10 µM [10] [%] | growth at 10 µM [11] [%] | growth at 10 µM [12] [%] | growth at 10 µM [13] [%] | growth at 10 µM [14] [%] | growth at 10 µM [15] [%] | growth at 10 µM [16] [%] | growth at 10 µM [17] [%] | growth at 10 µM [18] [%] | growth at 10 µM [19] [%] | growth at 10 µM [20] [%] | other results
1 | COc1ccc(Cn2cc(C(=O)N/N=C3/C(=O)Nc4c(C)cccc43)nn2)cc1 | 107 | 87.3 | 97.5 | 61.3 | 82 | 106 | 67.5 | 51 | 78.9 | 84.1 | 95.6 | 85.3 | 40.5 | 77.1 | 80.1 | 90 | 83.5 | 73 | 38.2 | 67.6 | growth at 10 µM [21]: 71.9%; growth at 10 µM [22]: 7.1%; growth at 10 µM [23]: 93.8%; growth at 10 µM [24]: 91.9%; growth at 10 µM [25]: 75.3%; growth at 10 µM [26]: 68%; growth at 10 µM [27]: 56.1%; growth at 10 µM [28]: 81.9%; growth at 10 µM [29]: 93.6%; growth at 10 µM [30]: 84.8%; growth at 10 µM [31]: 74.1%; growth at 10 µM [32]: 71.2%; growth at 10 µM [33]: 62.1%; growth at 10 µM [34]: 101%
2 | COc1ccc(Cn2cc(C(=O)N/N=C3/C(=O)Nc4ccc(F)cc43)nn2)cc1 | 106 | 103 | 96.8 | 98.4 | 103 | 102 | 91.8 | 106 | 101 | 111 | 95.8 | 94.2 | 104 | 97.4 | 107 | 99.1 | 107 | 106 | 110 | 98.7 | growth at 10 µM [21]: 111%; growth at 10 µM [22]: 108%; growth at 10 µM [23]: 103%; growth at 10 µM [24]: 109%; growth at 10 µM [25]: 102%; growth at 10 µM [26]: 103%; growth at 10 µM [27]: 102%; growth at 10 µM [28]: 110%; growth at 10 µM [29]: 94.7%; growth at 10 µM [30]: 101%; growth at 10 µM [31]: 88.6%; growth at 10 µM [32]: 96.7%; growth at 10 µM [33]: 94.6%; growth at 10 µM [34]: 99.3%
